Measured values as given in the supplement of paper PMC11451515.

Test system: NOMO1
Assay: cell viability relative to DMSO control; higher = less cytotoxic
Settings: 48 h
How it was run: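 Viability is expressed as a percentage of DMSO wells within each plate, and cell-free wells serve as background. Seeding densities in the 1536-well plates (5 μl) were 500 cells/well for NOMO1 or SEM leukemia cells and 1000 cells/well for P12-Ichikawa. Each line was adapted for at least four passages in each medium. Library compounds in DMSO were pin-dosed at 47 μM to 0.79 nM (11 points, threefold), and CellTiter-Glo One luminescence was read after 48 h at 37°C.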

[1] = HPLM + 10% dialyzed FBS, 0.000781 µM
[2] = HPLM + 10% dialyzed FBS, 0.00234 µM
[3] = HPLM + 10% dialyzed FBS, 0.00702 µM
[4] = HPLM + 10% dialyzed FBS, 0.0211 µM
[5] = HPLM + 10% dialyzed FBS, 0.0632 µM
[6] = HPLM + 10% dialyzed FBS, 0.19 µM
[7] = HPLM + 10% dialyzed FBS, 0.569 µM
[8] = HPLM + 10% dialyzed FBS, 1.71 µM
[9] = HPLM + 10% dialyzed FBS, 5.12 µM
[10] = HPLM + 10% dialyzed FBS, 15.4 µM
[11] = HPLM + 10% dialyzed FBS, 46.1 µM
[12] = RPMI 5 mM glucose + 10% FBS, 0.000781 µM
[13] = RPMI 5 mM glucose + 10% FBS, 0.00234 µM
[14] = RPMI 5 mM glucose + 10% FBS, 0.00702 µM
[15] = RPMI 5 mM glucose + 10% FBS, 0.0211 µM
[16] = RPMI 5 mM glucose + 10% FBS, 0.0632 µM
[17] = RPMI 5 mM glucose + 10% FBS, 0.19 µM
[18] = RPMI 5 mM glucose + 10% FBS, 0.569 µM
[19] = RPMI 5 mM glucose + 10% FBS, 1.71 µM
[20] = RPMI 5 mM glucose + 10% FBS, 5.12 µM
[21] = RPMI 5 mM glucose + 10% FBS, 15.4 µM
[22] = RPMI 5 mM glucose + 10% FBS, 46.1 µM
[23] = RPMI 5 mM glucose + 10% dialyzed FBS, 0.000781 µM
[24] = RPMI 5 mM glucose + 10% dialyzed FBS, 0.00234 µM
[25] = RPMI 5 mM glucose + 10% dialyzed FBS, 0.00702 µM
[26] = RPMI 5 mM glucose + 10% dialyzed FBS, 0.0211 µM
[27] = RPMI 5 mM glucose + 10% dialyzed FBS, 0.0632 µM
[28] = RPMI 5 mM glucose + 10% dialyzed FBS, 0.19 µM
[29] = RPMI 5 mM glucose + 10% dialyzed FBS, 0.569 µM
[30] = RPMI 5 mM glucose + 10% dialyzed FBS, 1.71 µM
[31] = RPMI 5 mM glucose + 10% dialyzed FBS, 5.12 µM
[32] = RPMI 5 mM glucose + 10% dialyzed FBS, 15.4 µM
[33] = RPMI 5 mM glucose + 10% dialyzed FBS, 46.1 µM

SMILES | cell viability [1] | cell viability [2] | cell viability [3] | cell viability [4] | cell viability [5] | cell viability [6] | cell viability [7] | cell viability [8] | cell viability [9] | cell viability [10] | cell viability [11] | cell viability [12] | cell viability [13] | cell viability [14] | cell viability [15] | cell viability [16] | cell viability [17] | cell viability [18] | cell viability [19] | cell viability [20] | cell viability [21] | cell viability [22] | cell viability [23] | cell viability [24] | cell viability [25] | cell viability [26] | cell viability [27] | cell viability [28] | cell viability [29] | cell viability [30] | cell viability [31] | cell viability [32] | cell viability [33]
CCOC(=O)c1ncn2c1CN(C)C(=O)c1cc(F)ccc1-2 | 131% | 124% | 124% | 117% | 123% | 120% | 109% | 110% | 108% | 90% | 73.6% | 116% | 130% | 118% | 111% | 99.6% | 104% | 106% | 120% | 120% | 108% | 76.8% | 122% | 109% | 110% | 124% | 113% | 107% | 128% | 95.7% | 116% | 103% | 78.8%
Cc1cc(SCc2sc(-c3ccc(C(F)(F)F)c(F)c3)nc2C)ccc1OCC(=O)O | 104% | 110% | 120% | 87.7% | 114% | 103% | 110% | 95.4% | 93.7% | 96.6% | 92.9% | 98.2% | 90.4% | 86% | 90.3% | 91% | 98.8% | 99.6% | 88.8% | 88.7% | 92.6% | 86.8% | 99.5% | 103% | 93.5% | 95% | 99.2% | 111% | 97.9% | 94% | 104% | 87.4% | 97%
COc1cc2ncnc(Nc3ccc(F)c(Cl)c3)c2cc1OCCCN1CCOCC1 | 127% | 115% | 112% | 95.3% | 109% | 117% | 108% | 96.8% | 93.7% | 64% | 29.2% | 111% | 114% | 109% | 106% | 102% | 116% | 104% | 100% | 101% | 87.7% | 86.2% | 121% | 112% | 122% | 112% | 115% | 113% | 114% | 109% | 93.4% | 97.5% | 75.1%
COc1ccc(-c2nc3cc(C4=NNC(=O)CC4C)ccc3[nH]2)cc1 (configuration not stated) | 104% | 117% | 107% | 103% | 110% | 119% | 112% | 123% | 119% | 119% | 126% | 91.5% | 102% | 100% | 108% | 117% | 118% | 109% | 114% | 102% | 117% | 118% | 116% | 110% | 111% | 105% | 110% | 118% | 104% | 111% | 116% | 110% | 120%
CC(C)(O)CNc1nc(Nc2ccnc(C(F)(F)F)c2)nc(-c2cccc(C(F)(F)F)n2)n1 | 99.2% | 99.4% | 131% | 120% | 146% | 122% | 134% | 114% | 99.4% | 85.8% | 72.8% | 112% | 115% | 102% | 109% | 118% | 106% | 103% | 123% | 43.7% | 50.3% | 48.7% | 105% | 110% | 120% | 115% | 121% | 117% | 109% | 114% | 56.3% | 53.2% | 62.5%
COc1ccc(CCC(=O)Nc2nc3ccc(Cl)cc3s2)cc1OC | 120% | 106% | 111% | 135% | 122% | 126% | 123% | 101% | 106% | 122% | 86.2% | 107% | 104% | 113% | 105% | 122% | 117% | 113% | 94.4% | 105% | 100% | 96.6% | 114% | 99.3% | 119% | 108% | 120% | 110% | 106% | 102% | 104% | 98.2% | 91.2%
CC(C)[C@H](CO)Nc1nc(Nc2ccc(C(=O)O)c(Cl)c2)c2ncn(C(C)C)c2n1 | 116% | 126% | 122% | 132% | 128% | 118% | 109% | 108% | 79.4% | 107% | 29.6% | 119% | 116% | 118% | 128% | 134% | 131% | 131% | 115% | 87.3% | 111% | 36.1% | 122% | 125% | 123% | 137% | 124% | 140% | 127% | 122% | 90.7% | 137% | 44.1%
Nc1ccc([S+](=O)([O-])Nc2ccccn2)cc1 | 122% | 106% | 122% | 117% | 106% | 115% | 140% | 133% | 116% | 124% | 87.6% | 110% | 106% | 111% | 113% | 121% | 125% | 112% | 118% | 126% | 108% | 79.8% | 120% | 121% | 114% | 109% | 112% | 121% | 122% | 130% | 109% | 115% | 58.1%
COc1cc(N2CCC(N3CCN(C)CC3)CC2)ccc1Nc1ncnc(Nc2ccccc2[S+](=O)([O-])C(C)C)n1 | 92.5% | 92.9% | 95.9% | 111% | 65% | 123% | 144% | 117% | 102% | 54.4% | 31% | 110% | 103% | 113% | 119% | 88% | 117% | 115% | 108% | 110% | 62.5% | 43.2% | 87.6% | 87.7% | 91.9% | 89.3% | 69.1% | 107% | 123% | 114% | 109% | 58.3% | 34.5%
CCCCOc1ccc(C(=O)Nc2ccc(F)cc2F)cc1 | 85.8% | 90.8% | 91.4% | 96.3% | 89.2% | 85.6% | 103% | 104% | 92.2% | 97.8% | 51% | 81.7% | 87.5% | 81.5% | 89.5% | 86.3% | 94.7% | 88.1% | 93.8% | 92.9% | 88.3% | 83% | 79.5% | 89.2% | 76.8% | 97.5% | 89.6% | 95.4% | 91.9% | 96.5% | 97.8% | 88.5% | 92%
O=C(NC1CC1)c1cccc(-c2ccc3c(NC(=O)C4CC4)n[nH]c3c2)c1 | 101% | 109% | 117% | 121% | 119% | 109% | 119% | 118% | 122% | 87.6% | 38.3% | 129% | 113% | 122% | 139% | 125% | 115% | 111% | 112% | 123% | 98.7% | 20.2% | 118% | 124% | 123% | 130% | 124% | 129% | 110% | 122% | 132% | 99.7% | 35.3%
CN(C)c1nc(N(C)C)nc(N(C)C)n1 | 101% | 113% | 100% | 105% | 96.3% | 92% | 90.5% | 97.1% | 98.7% | 82.3% | 89.9% | 96.2% | 108% | 102% | 97.4% | 99% | 95.3% | 94.6% | 92.2% | 95.9% | 95.3% | 91% | 94% | 103% | 96% | 99% | 98.4% | 103% | 101% | 89.4% | 83.9% | 90.8% | 85.6%
COc1ccc2cccc(CCNC(C)=O)c2c1 | 111% | 114% | 95.7% | 123% | 104% | 87.9% | 122% | 104% | 101% | 89.7% | 85% | 90.8% | 91.6% | 86.5% | 92.9% | 84.7% | 84.6% | 85.6% | 94.7% | 83.1% | 83.2% | 80.1% | 94.7% | 96.6% | 105% | 82.5% | 91.3% | 97.4% | 97.2% | 90.2% | 86% | 93.7% | 79.6%
OC1=C(C=CC=C1)C2=CC=C(C=C2)C3=CSC4=C3C(=C(/C#N)C(=O)N4)/O | 119% | 119% | 120% | 102% | 112% | 110% | 119% | 118% | 126% | 105% | 102% | – | – | – | – | – | – | – | – | – | – | – | 117% | 123% | 131% | 139% | 122% | 112% | 122% | 119% | 114% | 123% | 109%
CC1=C(/C=C/C(C)=C/C=C/C(C)=C/C(=O)Nc2ccc(O)cc2)C(C)(C)CCC1 | 63.6% | 82.3% | 97.9% | 102% | 87.5% | 81.5% | 94.6% | 80.6% | 53.6% | 25.9% | 4.95% | 72.4% | 85.1% | 74.5% | 96.5% | 91% | 79.9% | 95% | 78.8% | 63% | 34% | 4.45% | 78% | 76.4% | 77.8% | 92.9% | 90.9% | 89.7% | 86% | 85.5% | 55.8% | 23.6% | 3.24%
COC1=CC=C(C=C1)C/2=C/OC3=CC(=CC=C3C2=O)O | 108% | 125% | 114% | 119% | 116% | 119% | 119% | 109% | 83.1% | 67.9% | 43.1% | 123% | 111% | 121% | 115% | 132% | 114% | 106% | 118% | 102% | 101% | 71.1% | 122% | 120% | 113% | 106% | 133% | 121% | 101% | 105% | 111% | 104% | 98.4%
